# Tested on: E. coli
# Assay: CLSI overnight reference method MIC of antimicrobials against E. coli strains
# Type: cell-based
# Conditions: for MIC (CLSI Ref): unit assumed
# [1] = E. coli strain Clinical Sample 1
# [2] = E. coli strain Clinical Sample 2
# [3] = E. coli strain Clinical Sample 4
# [4] = E. coli strain Clinical Sample 5
# [5] = E. coli strain Clinical Sample 6
# [6] = E. coli strain Clinical Sample 7
# [7] = E. coli strain Clinical Sample 8
# [8] = E. coli strain Clinical Sample 9
# [9] = E. coli strain Clinical Sample 10
# [10] = E. coli strain Clinical Sample 11
# [11] = E. coli strain Clinical Sample 12
# [12] = E. coli strain Clinical Sample 13
Molecule,MIC (CLSI Ref) (E. coli strain BEI 4.097) [µg/mL],MIC (CLSI Ref) (E. coli strain CDC Carba36) [µg/mL],MIC (CLSI Ref) [1] [µg/mL],MIC (CLSI Ref) [2] [µg/mL],MIC (CLSI Ref) [3] [µg/mL],MIC (CLSI Ref) [4] [µg/mL],MIC (CLSI Ref) [5] [µg/mL],MIC (CLSI Ref) [6] [µg/mL],MIC (CLSI Ref) [7] [µg/mL],MIC (CLSI Ref) [8] [µg/mL],MIC (CLSI Ref) [9] [µg/mL],MIC (CLSI Ref) [10] [µg/mL],MIC (CLSI Ref) [11] [µg/mL],MIC (CLSI Ref) [12] [µg/mL],CLSI breakpoint interpretation [2]
"CC1(C)S[C@@H]2[C@H](NC(=O)[C@H](N)c3ccccc3)C(=O)N2[C@H]1C(=O)O [AMP, Ampicillin]",4,> 32,4,> 32,> 32,> 32,4,> 32,> 32,> 32,> 32,4,4,> 32,–
"C[C@H]1[C@H](NC(=O)/C(=N\OC(C)(C)C(=O)O)c2csc(N)n2)C(=O)N1S(=O)(=O)O [ATM, Aztreonam]",< 0.25,8,< 0.25,0.5,< 0.25,< 0.25,< 0.25,< 0.25,64,32,< 0.25,< 0.25,< 0.25,< 0.25,–
"CC(C)(O/N=C(\C(=O)N[C@@H]1C(=O)N2C(C(=O)[O-])=C(C[n+]3ccccc3)CS[C@H]12)c1csc(N)n1)C(=O)O [CAZ, Ceftazidime]",0.25,4,0.25,2,0.25,0.25,0.12,0.25,> 32,> 32,0.12,0.25,0.12,0.12,–
"CO/N=C(\C(=O)N[C@@H]1C(=O)N2C(C(=O)O)=C(CSc3nc(=O)c(=O)[nH]n3C)CS[C@H]12)c1csc(N)n1 [CRO, Ceftriaxone]",< 0.12,1,< 0.12,2,< 0.12,< 0.12,< 0.12,< 0.12,64,> 64,< 0.12,< 0.12,< 0.12,< 0.12,I
"C[C@@H](O)[C@H]1C(=O)N2C(C(=O)O)=C(S[C@@H]3CN[C@H](C(=O)Nc4cccc(C(=O)O)c4)C3)[C@H](C)[C@H]12 [ERT, Ertapenem]",0.008,0.12,0.008,0.015,0.008,0.008,0.008,0.008,0.25,0.12,0.008,0.008,0.008,0.016,–
"C[C@@H](O)[C@H]1C(=O)N2C(C(=O)O)=C(SCCN=CN)C[C@H]12 [IPM, Imipinem]",< 0.12,< 0.12,< 0.12,< 0.12,0.25,< 0.12,< 0.12,< 0.12,0.5,< 0.12,< 0.12,0.25,< 0.12,< 0.12,–
"C[C@H]1COc2c(N3CCN(C)CC3)c(F)cc3c(=O)c(C(=O)O)cn1c23 [LVX, Levofloxacin]",< 0.06,> 8,< 0.06,< 0.06,> 8,> 8,< 0.06,< 0.06,< 0.06,> 8,8,< 0.06,0.5,< 0.06,–
"C[C@@H](O)[C@H]1C(=O)N2C(C(=O)O)=C(S[C@@H]3CN[C@H](C(=O)N(C)C)C3)[C@H](C)[C@H]12 [MEM, Meropenem]",< 0.06,< 0.06,< 0.06,< 0.06,< 0.06,< 0.06,< 0.06,< 0.06,< 0.06,< 0.06,< 0.06,< 0.06,< 0.06,< 0.06,–
"CN(C)[C@@H]1C(=O)C(C(N)=O)=C(O)[C@@]2(O)C(=O)C3=C(O)c4c(O)cccc4[C@@](C)(O)[C@H]3C[C@@H]12 [TET, Tetracycline]",32,8,4,> 32,4,> 32,2,4,8,4,4,4,4,4,R
"NC[C@H]1O[C@H](O[C@H]2[C@H](O)[C@@H](O[C@H]3O[C@H](CO)[C@@H](O)[C@H](N)[C@H]3O)[C@H](N)C[C@@H]2N)[C@H](N)C[C@@H]1O [TOB, Tobramycin]",1,1,2,1,1,1,1,1,2,4,16,1,1,1,–
Ampicillin/sulbactam [SAM],8,> 32,4,16,16,8,2,16,64,32,16,4,2,> 32,I
Colistin [CST],0.12,0.25,0.12,0.12,0.25,0.25,0.12,0.12,0.12,0.5,0.25,0.5,0.25,0.25,–
Gentamycin,0.5,2,0.5,4,0.5,2,0.5,0.5,1,1,> 16,2,1,1,–
Penicillin,16,> 16,> 16,> 16,> 16,> 16,16,> 16,> 16,> 16,> 16,> 16,> 16,16,–
